Measurements reported in patent publication US6639023B1, “Fluorophenyl resin compounds” (Aventis Pharmaceuticals Inc., priority 1998, dated 2003).

Molecular target: Factor Xa (Homo sapiens, UniProt P00742)
Experiment: IC50 against Factor Xa
Assay type: biochemical

Factor Xa, sequence (P00742 235-488 limits assumed): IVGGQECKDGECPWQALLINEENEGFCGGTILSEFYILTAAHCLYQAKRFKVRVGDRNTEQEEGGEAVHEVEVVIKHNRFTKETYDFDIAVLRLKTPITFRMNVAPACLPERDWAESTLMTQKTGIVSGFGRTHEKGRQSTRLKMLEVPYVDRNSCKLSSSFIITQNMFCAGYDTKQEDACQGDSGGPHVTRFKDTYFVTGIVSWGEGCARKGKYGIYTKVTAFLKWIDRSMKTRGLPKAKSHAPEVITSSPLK
Factor Xa, sequence (P00742 41-179 partner limits assumed): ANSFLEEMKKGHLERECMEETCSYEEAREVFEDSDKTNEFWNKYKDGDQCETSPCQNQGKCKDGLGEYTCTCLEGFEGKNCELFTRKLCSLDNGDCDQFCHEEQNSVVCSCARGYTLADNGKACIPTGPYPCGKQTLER

IC50: < 500 nM
Structure (SMILES): O=C1[C@@H](NS(=O)(=O)c2cc3ccc(Cl)cc3s2)CCN1Cc1cc2ncccc2[nH]1 [Example 24]
